Where “and” joins values, the source holds several entries; their conditions need not be identical. Equal values may be shown once.
Assays:
drIndy = drIndy (Drosophila melanogaster, UniProt Q9VVT2); conditions: for % Control of cDNA-specific [^3H]succinate uptake / cDNA-specific [^3H] succinate uptake: [3H]succinate 40 nM, inhibitor 2.5 mM; for cDNA-specific [^3H] succinate uptake: NaCl buffer pH 7.5; for Citrate uptake, drIndy / Fold Increase of citrate uptake (drIndy vs vector): citrate 35 μM, indicated salt; for Citrate uptake, drIndy: drIndy cDNA-transfected HRPE cells
drIndy, sequence (Q9VVT2 19-590): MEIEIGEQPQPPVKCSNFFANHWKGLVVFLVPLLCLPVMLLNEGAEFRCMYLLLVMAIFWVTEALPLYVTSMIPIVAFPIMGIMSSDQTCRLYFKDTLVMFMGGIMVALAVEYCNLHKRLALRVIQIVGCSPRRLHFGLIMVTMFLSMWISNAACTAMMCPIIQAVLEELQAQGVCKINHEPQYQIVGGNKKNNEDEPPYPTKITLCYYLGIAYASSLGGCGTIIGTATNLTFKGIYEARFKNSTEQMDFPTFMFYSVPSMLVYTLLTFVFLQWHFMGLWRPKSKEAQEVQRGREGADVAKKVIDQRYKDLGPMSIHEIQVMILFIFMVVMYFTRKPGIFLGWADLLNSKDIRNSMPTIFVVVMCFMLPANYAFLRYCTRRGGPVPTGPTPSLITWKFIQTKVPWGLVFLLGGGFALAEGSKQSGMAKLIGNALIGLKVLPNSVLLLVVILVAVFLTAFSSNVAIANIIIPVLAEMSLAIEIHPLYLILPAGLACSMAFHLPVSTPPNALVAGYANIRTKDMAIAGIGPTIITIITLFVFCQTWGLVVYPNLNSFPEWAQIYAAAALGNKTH

human NaCT = human NaCT (Homo sapiens, UniProt Q86YT5); test: Uptake via human NaCT expressed in HRPE cells; type: cell-based; conditions: for Citrate Uptake, cDNA: human NaCT cDNA-transfected HRPE; for Citrate Uptake, cDNA / Citrate Uptake, cDNA-specific: pH 7.5, indicated salt; for Citrate Uptake, cDNA-specific, %: relative to NaCl
human NaCT, sequence (Q86YT5 whole entry): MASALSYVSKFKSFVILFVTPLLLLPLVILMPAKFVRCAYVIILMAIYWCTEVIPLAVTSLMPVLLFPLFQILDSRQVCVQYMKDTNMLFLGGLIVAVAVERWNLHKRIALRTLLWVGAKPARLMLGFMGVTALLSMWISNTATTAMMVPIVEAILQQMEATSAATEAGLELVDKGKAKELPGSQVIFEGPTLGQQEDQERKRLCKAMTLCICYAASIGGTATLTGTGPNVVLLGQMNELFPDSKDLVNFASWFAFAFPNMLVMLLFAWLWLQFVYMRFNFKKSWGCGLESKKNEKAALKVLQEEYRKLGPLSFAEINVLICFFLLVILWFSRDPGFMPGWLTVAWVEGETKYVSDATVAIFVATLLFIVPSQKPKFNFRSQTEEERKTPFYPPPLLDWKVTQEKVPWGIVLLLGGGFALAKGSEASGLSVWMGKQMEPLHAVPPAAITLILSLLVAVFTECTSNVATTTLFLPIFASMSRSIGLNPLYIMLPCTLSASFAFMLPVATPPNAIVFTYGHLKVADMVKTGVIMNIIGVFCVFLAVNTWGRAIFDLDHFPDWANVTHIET

rat NaCT = target: T1, rat NaCT (Rattus norvegicus, UniProt Q8CJ44); test: Uptake via rat NaCT expressed in HRPE cells; type: cell-based; conditions: for Citrate Uptake, cDNA-specific / Citrate Uptake, cDNA / Citrate Uptake, cDNA-specific, %: [14C]citrate 7 μM; for Citrate Uptake, cDNA-specific / Citrate Uptake, cDNA: pH 7.5, indicated salt; for Citrate Uptake, cDNA: rat NaCT cDNA-transfected HRPE; for Citrate Uptake, cDNA-specific, %: relative to NaCl
T1 sequence (Q8CJ44 1-572): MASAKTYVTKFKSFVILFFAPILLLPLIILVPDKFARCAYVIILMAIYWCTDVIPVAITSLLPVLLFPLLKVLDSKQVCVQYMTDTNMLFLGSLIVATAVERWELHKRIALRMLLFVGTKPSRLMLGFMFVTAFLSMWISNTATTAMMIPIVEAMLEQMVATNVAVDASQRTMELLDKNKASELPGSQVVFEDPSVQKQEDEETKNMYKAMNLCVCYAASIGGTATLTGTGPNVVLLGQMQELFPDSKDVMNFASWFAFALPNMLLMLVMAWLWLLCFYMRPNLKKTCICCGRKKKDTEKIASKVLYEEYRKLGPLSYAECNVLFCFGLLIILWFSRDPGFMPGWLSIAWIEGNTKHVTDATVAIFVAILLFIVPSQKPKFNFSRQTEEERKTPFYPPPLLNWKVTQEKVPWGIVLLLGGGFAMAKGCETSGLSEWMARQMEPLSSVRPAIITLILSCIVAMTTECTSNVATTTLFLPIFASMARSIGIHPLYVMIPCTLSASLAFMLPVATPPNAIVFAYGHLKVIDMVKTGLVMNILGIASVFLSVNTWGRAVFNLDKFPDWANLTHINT

mouse NaCT = target: T2, mouse NaCT (Mus musculus, UniProt Q67BT3); test: Transport via mouse NaCT expressed in HRPE cells; type: cell-based
T2 sequence (Q67BT3 1-572): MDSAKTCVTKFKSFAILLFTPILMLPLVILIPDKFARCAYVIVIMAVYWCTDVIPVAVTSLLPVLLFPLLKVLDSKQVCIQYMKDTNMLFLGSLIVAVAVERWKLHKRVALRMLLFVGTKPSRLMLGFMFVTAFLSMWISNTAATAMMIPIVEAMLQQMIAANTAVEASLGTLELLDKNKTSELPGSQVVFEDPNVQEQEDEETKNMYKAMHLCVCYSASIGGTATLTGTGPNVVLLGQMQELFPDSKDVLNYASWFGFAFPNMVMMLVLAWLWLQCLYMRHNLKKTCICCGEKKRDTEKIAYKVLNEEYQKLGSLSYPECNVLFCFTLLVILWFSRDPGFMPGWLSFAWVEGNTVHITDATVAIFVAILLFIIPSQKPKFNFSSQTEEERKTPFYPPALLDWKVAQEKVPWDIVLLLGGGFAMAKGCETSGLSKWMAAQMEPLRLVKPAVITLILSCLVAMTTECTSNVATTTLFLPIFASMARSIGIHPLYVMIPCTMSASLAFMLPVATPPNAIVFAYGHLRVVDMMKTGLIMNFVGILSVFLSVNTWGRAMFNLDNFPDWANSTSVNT

With `CC(=O)N[C@@H](CC(=O)O)C(=O)O` [N-Acetylaspartate] the “% Control of cDNA-specific [^3H]succinate uptake” value (“% Control of cDNA-specific” below) (drIndy) was 43% and the “cDNA-specific [^3H] succinate uptake” value (drIndy) was 58.4 ± 1.5 fmol/106 cells per min.

In the case of `CNC[C@H](O)[C@@H](O)[C@H](O)[C@H](O)CO.Cl` [NMDG chloride, N-methyl-D-glucamine chloride], the “Citrate Uptake, cDNA” value (human NaCT; [14C]-citrate 20 μM) is reported as 1.3 ± 0.2 pmol/10^6 cells/min, the “Citrate Uptake, cDNA-specific” value (human NaCT; [14C]-citrate 20 μM) is reported as −0.1 ± 0.2^ pmol/10^6 cells/min and the “Citrate Uptake, cDNA-specific, %” value (human NaCT) is reported as 0%. For the same compound, the “Citrate uptake, drIndy” value (drIndy) was 25.4 ± 1.8 pmol/10^6 cells per min, the “Fold Increase of citrate uptake (drIndy vs vector)” value (from here on “Fold Increase of citrate uptake”) (drIndy) was 13.4 fold and the “Citrate Uptake, cDNA-specific” value (rat NaCT) was 0.4 ± 0.3 pmol/10^6 cells/min. For the same compound, the “Citrate Uptake, cDNA” value (rat NaCT) was 1.6 ± 0.3 pmol/10^6 cells/min and the “Citrate Uptake, cDNA-specific, %” value (rat NaCT) was 1%.

`[Cl-].[Na+]` [NaCl] was tested, and the “Citrate Uptake, cDNA” value (human NaCT; [14C]-citrate 20 μM) was 59.9 ± 3.9 pmol/10^6 cells/min, the “Citrate Uptake, cDNA-specific” value (human NaCT; [14C]-citrate 20 μM) was 58.4 ± 3.9 pmol/10^6 cells/min and the “Citrate Uptake, cDNA-specific, %” value (human NaCT) was 100%. For the same compound, the “Citrate uptake, drIndy” value (drIndy) was 57.4 ± 3.3 pmol/10^6 cells per min, the “Fold Increase of citrate uptake” value (drIndy) was 26.1 fold and the “Citrate Uptake, cDNA-specific” value (rat NaCT) was 38.0 ± 3.3 pmol/10^6 cells/min. The “Citrate Uptake, cDNA” value (rat NaCT) was 38.8 ± 3.3 pmol/10^6 cells/min and the “Citrate Uptake, cDNA-specific, %” value (rat NaCT) was 100%.

In the case of `[Na+]` [Na^+], the “Hill coefficient (nH) of Na+ activation” value (mouse NaCT) is reported as 3.3±0.6 and 2.0±0.3, the EC50 (mouse NaCT; read-out: K0.5 for Na+ (half-maximal activation of the transport process)) is reported as 72 ± 6 mM and the “Hill coefficient (nH) of Na+ dependence of citrate uptake” value (rat NaCT) is reported as 3.3±0.3.

`CC(=O)C(=O)O` [Pyruvate, pyruvate] was tested, and the “[^14C]-Citrate Uptake, %” value (human NaCT; [14C]-citrate 20 μM, unlabeled compound 2.5 mM, none = 100) was 108%, the “[^3H]-Succinate transport, %” value (mouse NaCT; [3H]-succinate 0.1 μM, substrate analog 2 mM, control = 100) was 104% and the “[^14C]-Citrate transport, %” value (mouse NaCT; [14C]-citrate 10 μM, substrate analog 2 mM, control = 100) was 84%. The “% Control of cDNA-specific” value (drIndy) was 21% and the “[^14C]Citrate uptake, %” value (rat NaCT; [14C]citrate 14 μM, unlabeled compound 2.5 mM, none = 100) was 83%.

For `O=C([O-])[C@H](O)[C@@H](O)[C@H](O)[C@H](O)CO.[Na+]` [Sodium gluconate], the “Citrate Uptake, cDNA” value (human NaCT; [14C]-citrate 20 μM) was 61.7 ± 4.7 pmol/10^6 cells/min, the “Citrate Uptake, cDNA-specific” value (human NaCT; [14C]-citrate 20 μM) was 60.1 ± 4.7 pmol/10^6 cells/min and the “Citrate Uptake, cDNA-specific, %” value (human NaCT) was 103%. The “Citrate uptake, drIndy” value (drIndy) was 144.2 ± 1.6 pmol/10^6 cells per min, the “Fold Increase of citrate uptake” value (drIndy) was 65.6 fold and the “Citrate Uptake, cDNA-specific” value (rat NaCT) was 29.1 ± 2.3 pmol/10^6 cells/min. The “Citrate Uptake, cDNA” value (rat NaCT) was 29.6 ± 2.3 pmol/10^6 cells/min and the “Citrate Uptake, cDNA-specific, %” value (rat NaCT) was 77%.

In the case of `O=C(O)CC(O)(C(=O)O)C(O)C(=O)O` (centres unmarked) [hydroxycitrate], the “Inhibition of citrate uptake via NaCT” value (human NaCT; 0.1 mM hydroxycitrate, human NaCT in HRPE cells) is reported as 30-40% and the “Inhibition of citrate uptake via NaCT” value (rat NaCT; 0.1 mM hydroxycitrate, rat NaCT in HRPE cells) is reported as 30-40%.

In the case of `CC(O)CC(=O)O` (stereo not drawn) [β-Hydroxybutyrate], the “% Control of cDNA-specific” value (drIndy) is reported as 91% and the “cDNA-specific [^3H] succinate uptake” value (drIndy) is reported as 134.0 ± 9.0 fmol/106 cells per min.
